From US9718824B2, “Solid forms comprising 7-(6-(2-hydroxypropan-2-yl)pyridin-3-yl)-1-((trans)-4-methoxycyclohexyl)-3,4-dihydropyrazino[2,3-b]pyrazin-2(1H)-one, and a coformer, compositions and methods of use thereof” (Signal Pharmaceuticals, LLC, priority 2014, dated 2017)

Test: Physical stability under accelerated ageing conditions, re-analysis by XRPD and digital imaging
Format: physicochemical
Settings: 40° C. and 75% RH, 48 hours
Experimental: AAC: Accelerated aging conditions (48 hours at 40° C. and 75% RH)
Physical stability of all samples was studied by exposing all solids to accelerated ageing conditions (40° C./75% RH for 48 hours) followed by re-analysis by XRPD and digital imaging. After exposure to accelerated ageing conditions, all solids were re-classified on the basis of their new XRPD patterns. The assignment of solid forms was primarily based on the XRPD analysis.
Subsequently, all solids were placed in a climate chamber at 40° C. and 75% RH for […] and again analyzed by XRPD and digital imaging.
Compound 1 free base was solid dosed in 1.8 mL scale experimental vials. The coformer was added at a ratio of 1:1.1 (Compound 1:coformer). The solvent and a stirring bar were added to the vials. […] After the solids were separated from the liquids, the solids were analyzed wet by XRPD and digital imaging. […] The solids obtained were then analyzed by XRPD and digital imaging. Subsequently, the solids were incubated in a climate chamber at 40° C. and 75% RH for 48 hours and again analyzed by XRPD and digital imaging.
In these experiments 4 coformers and 6 solvents were tested (see Table 10). […] All obtained solids were then analyzed by XRPD and digital imaging. Subsequently, the solids were placed in a climate chamber at 40° C. and 75% RH for 3 days after which they were analyzed by XRPD and digital imaging again. […]

- Physical stability at accelerated aging conditions (solid form by XRPD): stable
Compound: COC1CCC(N2C(=O)CNc3ncc(-c4ccc(C(C)(C)O)nc4)nc32)CC1.O=C(O)C=CC(=O)O (stereo not shown) [Form 1]
